Assays:
Assay in all cases: cells
Settings in all cases: Homo sapiens
[1] = tested on: CTB-1; type: functional, cell-based
Description: SANGER: Inhibition of human CTB-1 cell growth in a cell viability assay.

[2] = tested on: CTV-1; type: functional, cell-based;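 also: growth inhibition of the cell line, read out with a cell viability assay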
Description: SANGER: Inhibition of human CTV-1 cell growth in a cell viability assay.

[3] = tested on: Calu-6; type: functional, cell-based;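 also: growth of human Calu-6 cells, read out by a cell viability assay, IC50 marking inhibition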
Description: SANGER: Inhibition of human Calu-6 cell growth in a cell viability assay.

[4] = tested on: D283 Med; type: functional, cell-based
Description: SANGER: Inhibition of human D-283MED cell growth in a cell viability assay.

[5] = tested on: D-502MG; type: functional, cell-based
Description: SANGER: Inhibition of human D-502MG cell growth in a cell viability assay.

[6] = tested on: DMS-114; type: functional, cell-based
[7] = tested on: DMS-79; type: functional, cell-based;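 also: growth inhibition measured with a cell viability assay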
Description: SANGER: Inhibition of human DMS-79 cell growth in a cell viability assay.

[8] = tested on: DU-4475; type: functional, cell-based
Description: SANGER: Inhibition of human DU-4475 cell growth in a cell viability assay.

[9] = tested on: EC-GI-10; type: functional, cell-based
Description: SANGER: Inhibition of human EC-GI-10 cell growth in a cell viability assay.

[10] = tested on: ES3; type: functional, cell-based;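 also: growth inhibition of ES3 cells, read out with a cell viability assay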
Description: SANGER: Inhibition of human ES3 cell growth in a cell viability assay.

[11] = tested on: ES5; type: functional, cell-based;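 also: growth inhibition of human ES5 cells, read out by a cell viability assay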
Description: SANGER: Inhibition of human ES5 cell growth in a cell viability assay.

[12] = tested on: EW-24; type: functional, cell-based;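 also: human EW-24 cancer cell line, growth inhibition read out via a cell viability assay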
Description: SANGER: Inhibition of human EW-24 cell growth in a cell viability assay.

[13] = tested on: EOL1; type: functional, cell-based;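 also: growth inhibition of EoL-1 cells, read out by a cell viability assay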
Description: SANGER: Inhibition of human EoL-1-cell cell growth in a cell viability assay.

[14] = tested on: GCIY; type: functional, cell-based;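 also: growth inhibition of the human GCIY cell line, read out by a cell viability assay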
Description: SANGER: Inhibition of human GCIY cell growth in a cell viability assay.

[15] = tested on: GOTO; type: functional, cell-based;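 also: growth inhibition of GOTO cells, read out by a cell viability assay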
Description: SANGER: Inhibition of human GOTO cell growth in a cell viability assay.

[16] = tested on: HCC1187; type: functional, cell-based;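 also: growth inhibition of HCC1187 cells, read out with a cell viability assay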
Description: SANGER: Inhibition of human HCC1187 cell growth in a cell viability assay.

[17] = tested on: HCE-4; type: functional, cell-based;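 also: cell viability assay measuring inhibition of growth in the human HCE-4 cell line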
Description: SANGER: Inhibition of human HCE-4 cell growth in a cell viability assay.

[18] = tested on: HCE-T; type: functional, cell-based;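 also: cell viability assay read-out, reporting inhibition of HCE-T cell growth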
Description: SANGER: Inhibition of human HCE-T cell growth in a cell viability assay.

[19] = tested on: HOP-62; type: functional, cell-based;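 also: cell growth inhibition determined with a viability assay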
Description: SANGER: Inhibition of human HOP-62 cell growth in a cell viability assay.

[20] = tested on: HuTu80; type: functional, cell-based, HUTU-80;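 also: growth inhibition of HuTu80 human cells, determined with a cell viability readout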
Description: SANGER: Inhibition of human HUTU-80 cell growth in a cell viability assay.

[21] = tested on: JVM-2; type: functional, cell-based;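 also: growth inhibition of JVM-2 cells determined by a cell viability assay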
Description: SANGER: Inhibition of human JVM-2 cell growth in a cell viability assay.

[22] = tested on: JVM-3; type: functional, cell-based;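 also: growth inhibition of human JVM-3 cells, read out with a cell viability assay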
Description: SANGER: Inhibition of human JVM-3 cell growth in a cell viability assay.

[23] = tested on: KALS-1; type: functional, cell-based;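 also: growth inhibition of KALS-1 cells, determined with a cell viability assay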
Description: SANGER: Inhibition of human KALS-1 cell growth in a cell viability assay.

[24] = tested on: KARPAS-45; type: functional, cell-based;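 also: inhibition of cell line growth, read out through a viability assay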
Description: SANGER: Inhibition of human KARPAS-45 cell growth in a cell viability assay.

[25] = tested on: KG-1; type: functional, cell-based;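 also: growth inhibition of KG-1 cells, read out by a cell viability assay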
Description: SANGER: Inhibition of human KG-1 cell growth in a cell viability assay.

[26] = tested on: KGN; type: functional, cell-based;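 also: growth inhibition of KGN cells, read out with a cell viability assay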
Description: SANGER: Inhibition of human KGN cell growth in a cell viability assay.

[27] = tested on: KINGS-1; type: functional, cell-based;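 also: cell viability assay measuring suppression of KINGS-1 cell growth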
Description: SANGER: Inhibition of human KINGS-1 cell growth in a cell viability assay.

[28] = tested on: KLE; type: functional, cell-based;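 also: growth inhibition of human KLE cells, read out with a cell viability assay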
Description: SANGER: Inhibition of human KLE cell growth in a cell viability assay.

[29] = tested on: KNS-42; type: functional, cell-based;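 also: growth inhibition of KNS-42 cells, read out with a cell viability assay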
Description: SANGER: Inhibition of human KNS-42 cell growth in a cell viability assay.

[30] = tested on: KP-N-YS; type: functional, cell-based;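 also: cell viability assay measuring inhibition of cell line growth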
Description: SANGER: Inhibition of human KP-N-YS cell growth in a cell viability assay.

[31] = tested on: KS-1; type: functional, cell-based;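 also: growth inhibition of KS-1 cells, read out with a cell viability assay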
Description: SANGER: Inhibition of human KS-1 cell growth in a cell viability assay.

[32] = tested on: KURAMOCHI; type: functional, cell-based;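 also: growth inhibition of KURAMOCHI cells, read out with a cell viability assay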
Description: SANGER: Inhibition of human KURAMOCHI cell growth in a cell viability assay.

[33] = tested on: L-428; type: functional, cell-based
Description: SANGER: Inhibition of human L-428 cell growth in a cell viability assay.

[34] = tested on: LB1047-RCC; type: functional, cell-based;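 also: inhibition of cell growth, determined with a cell viability assay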
Description: SANGER: Inhibition of human LB1047-RCC cell growth in a cell viability assay.

[35] = tested on: LS-1034; type: functional, cell-based
Description: SANGER: Inhibition of human LS-1034 cell growth in a cell viability assay.

[36] = tested on: MHH-PREB-1; type: functional, cell-based;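 also: cell viability assay measuring inhibition of proliferation of human MHH-PREB-1 cells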
Description: SANGER: Inhibition of human MHH-PREB-1 cell growth in a cell viability assay.

[37] = tested on: ML-2; type: functional, cell-based;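 also: growth inhibition of ML-2 cells, measured with a cell viability readout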
Description: SANGER: Inhibition of human ML-2 cell growth in a cell viability assay.

[38] = tested on: MN-60; type: functional, cell-based;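 also: growth inhibition of the MN-60 cell line, determined with a cell viability assay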
Description: SANGER: Inhibition of human MN-60 cell growth in a cell viability assay.

[39] = tested on: MS-1; type: functional, cell-based;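 also: growth inhibition of MS-1 cells, read out by cell viability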
Description: SANGER: Inhibition of human MS-1 cell growth in a cell viability assay.

[40] = tested on: MSTO-211H; type: functional, cell-based
Description: SANGER: Inhibition of human MSTO-211H cell growth in a cell viability assay.

[41] = tested on: NCI-H1155; type: functional, cell-based;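 also: cell growth inhibition measured by a viability assay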
Description: SANGER: Inhibition of human NCI-H1155 cell growth in a cell viability assay.

[42] = tested on: NCI-H1355; type: functional, cell-based;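 also: growth inhibition of human NCI-H1355 cells, read out by a cell viability assay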
Description: SANGER: Inhibition of human NCI-H1355 cell growth in a cell viability assay.

[43] = tested on: NCI-H1648; type: functional, cell-based;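 also: cell viability assay measuring inhibition of NCI-H1648 cell growth, from the Sanger screening data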
Description: SANGER: Inhibition of human NCI-H1648 cell growth in a cell viability assay.

[44] = tested on: NCI-H209; type: functional, cell-based;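 also: growth inhibition of human NCI-H209 cells, measured by a cell viability assay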
Description: SANGER: Inhibition of human NCI-H209 cell growth in a cell viability assay.

[45] = tested on: NCI-H510A; type: functional, cell-based;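 also: growth inhibition of NCI-H510A cells, read out with a cell viability assay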
Description: SANGER: Inhibition of human NCI-H510A cell growth in a cell viability assay.

[46] = tested on: NOMO-1; type: functional, cell-based;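 also: growth inhibition of human NOMO-1 cells measured by a cell viability assay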
Description: SANGER: Inhibition of human NOMO-1 cell growth in a cell viability assay.

[47] = tested on: NTERA-2-cl-D1; type: functional, cell-based;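 also: inhibition of cell growth, measured with a cell viability assay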
Description: SANGER: Inhibition of human NTERA-S-cl-D1 cell growth in a cell viability assay.

[48] = tested on: OMC-1; type: functional, cell-based;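 also: growth inhibition of the OMC-1 cell line, measured by a cell viability assay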
Description: SANGER: Inhibition of human OMC-1 cell growth in a cell viability assay.

[49] = tested on: ONS-76; type: functional, cell-based;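 also: growth inhibition of human ONS-76 cells, read out with a cell viability assay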
Description: SANGER: Inhibition of human ONS-76 cell growth in a cell viability assay.

[50] = tested on: OS-RC-2; type: functional, cell-based;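 also: growth inhibition of human OS-RC-2 cells, measured by a cell viability assay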
Description: SANGER: Inhibition of human OS-RC-2 cell growth in a cell viability assay.

[51] = tested on: RPMI-8866; type: functional, cell-based
Description: SANGER: Inhibition of human RPMI-8866 cell growth in a cell viability assay.

[52] = tested on: SCC-15; type: functional, cell-based;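 also: growth inhibition of SCC-15 cells, read out with a cell viability assay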
Description: SANGER: Inhibition of human SCC-15 cell growth in a cell viability assay.

[53] = tested on: SF-539; type: functional, cell-based;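 also: Read-out is a cell viability assay, with IC50 reflecting inhibition of cell growth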
Description: SANGER: Inhibition of human SF539 cell growth in a cell viability assay.

[54] = tested on: SJSA-1; type: functional, cell-based;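 also: growth inhibition of human SJSA-1 cells, read out through a cell viability measurement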
Description: SANGER: Inhibition of human SJSA-1 cell growth in a cell viability assay.

[55] = tested on: SK-MEL-1; type: functional, cell-based;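 also: growth inhibition of human SK-MEL-1 cells, read out by a cell viability assay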
Description: SANGER: Inhibition of human SK-MEL-1 cell growth in a cell viability assay.

[56] = tested on: SK-N-DZ; type: functional, cell-based;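 also: growth inhibition of the cancer cell line, read out through a viability assay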
Description: SANGER: Inhibition of human SK-N-DZ cell growth in a cell viability assay.

[57] = tested on: SK-N-FI; type: functional, cell-based;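 also: cell viability assay measuring growth inhibition of human SK-N-FI cells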
Description: SANGER: Inhibition of human SK-N-FI cell growth in a cell viability assay.

[58] = tested on: SK-NEP-1; type: functional, cell-based;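 also: growth inhibition of human SK-NEP-1 cells, read out by a cell viability assay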
Description: SANGER: Inhibition of human SK-NEP-1 cell growth in a cell viability assay.

[59] = tested on: SNB-75; type: functional, cell-based;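 also: cell viability assay measuring growth inhibition of human SNB-75 cells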
Description: SANGER: Inhibition of human SNB75 cell growth in a cell viability assay.

[60] = tested on: SW 962; type: functional, cell-based;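 also: growth inhibition of human SW962 cells, read out by a cell viability assay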
Description: SANGER: Inhibition of human SW962 cell growth in a cell viability assay.

[61] = tested on: A3-KAW; type: functional, cell-based
Description: SANGER: Inhibition of human A3-KAW cell growth in a cell viability assay.

[62] = tested on: A388; type: functional, cell-based
Description: SANGER: Inhibition of human A388 cell growth in a cell viability assay.

[63] = tested on: C8166; type: functional, cell-based
Description: SANGER: Inhibition of human C8166 cell growth in a cell viability assay.

[64] = tested on: TE-11; type: functional, cell-based
Description: SANGER: Inhibition of human TE-11 cell growth in a cell viability assay.

[65] = tested on: TK-10; type: functional, cell-based
Description: SANGER: Inhibition of human TK10 cell growth in a cell viability assay.

[66] = tested on: CAS-1; type: functional, cell-based
Description: SANGER: Inhibition of human CAS-1 cell growth in a cell viability assay.

Q: With Cn1cc(/C=C2\C(=O)Nc3cccnc32)c2ccccc21 as the compound, how does the IC50 [1] read?
A: Its IC50 is over 2000 nM.

Q: And the IC50 [2]?
A: The IC50 was over 2000 nM.

Q: What about the IC50 [3] of the same compound?
A: Its IC50 is over 2000 nM.

Q: What about the IC50 [4] of the same compound?
A: The IC50 was over 2000 nM.

Q: What about the IC50 [5] of the same compound?
A: Its IC50 is over 2000 nM.

Q: And the IC50 [6]?
A: Its IC50 is over 2000 nM.

Q: What about the IC50 [7] of the same compound?
A: The IC50 was over 2000 nM.

Q: What about the IC50 [8] of the same compound?
A: Its IC50 is over 2000 nM.

Q: And the IC50 [9]?
A: The IC50 was over 2000 nM.

Q: What about the IC50 [10] of the same compound?
A: Its IC50 is over 2000 nM.

Q: What about the IC50 [11] of the same compound?
A: The IC50 was over 2000 nM.

Q: And the IC50 [12]?
A: Its IC50 is over 2000 nM.

Q: And the IC50 [13]?
A: Its IC50 is over 2000 nM.

Q: What about the IC50 [14] of the same compound?
A: Its IC50 is over 2000 nM.

Q: And the IC50 [15]?
A: The IC50 was over 2000 nM.

Q: And the IC50 [16]?
A: Its IC50 is over 2000 nM.

Q: And the IC50 [17]?
A: Its IC50 is over 2000 nM.

Q: And the IC50 [18]?
A: Its IC50 is over 2000 nM.

Q: And the IC50 [19]?
A: Its IC50 is 322 nM.

Q: What about the IC50 [20] of the same compound?
A: Its IC50 is over 2000 nM.

Q: What about the IC50 [21] of the same compound?
A: The IC50 was over 2000 nM.

Q: What about the IC50 [22] of the same compound?
A: Its IC50 is over 2000 nM.

Q: And the IC50 [23]?
A: The IC50 was over 2000 nM.

Q: What about the IC50 [24] of the same compound?
A: Its IC50 is over 2000 nM.

Q: What about the IC50 [25] of the same compound?
A: Its IC50 is over 2000 nM.

Q: What about the IC50 [26] of the same compound?
A: Its IC50 is over 2000 nM.

Q: What about the IC50 [27] of the same compound?
A: Its IC50 is over 2000 nM.

Q: And the IC50 [28]?
A: The IC50 was over 2000 nM.

Q: And the IC50 [29]?
A: Its IC50 is over 2000 nM.

Q: And the IC50 [30]?
A: Its IC50 is over 2000 nM.

Q: What about the IC50 [31] of the same compound?
A: The IC50 was over 2000 nM.

Q: And the IC50 [32]?
A: The IC50 was over 2000 nM.

Q: What about the IC50 [33] of the same compound?
A: The IC50 was over 2000 nM.

Q: And the IC50 [34]?
A: Its IC50 is over 2000 nM.

Q: What about the IC50 [35] of the same compound?
A: The IC50 was over 2000 nM.

Q: What about the IC50 [36] of the same compound?
A: The IC50 was over 2000 nM.

Q: And the IC50 [37]?
A: Its IC50 is over 2000 nM.

Q: What about the IC50 [38] of the same compound?
A: Its IC50 is over 2000 nM.

Q: What about the IC50 [39] of the same compound?
A: Its IC50 is over 2000 nM.

Q: What about the IC50 [40] of the same compound?
A: Its IC50 is over 2000 nM.

Q: And the IC50 [41]?
A: Its IC50 is over 2000 nM.

Q: And the IC50 [42]?
A: Its IC50 is over 2000 nM.

Q: What about the IC50 [43] of the same compound?
A: Its IC50 is over 2000 nM.

Q: What about the IC50 [44] of the same compound?
A: Its IC50 is over 2000 nM.

Q: And the IC50 [45]?
A: The IC50 was over 2000 nM.

Q: And the IC50 [46]?
A: Its IC50 is over 2000 nM.

Q: What about the IC50 [47] of the same compound?
A: The IC50 was over 2000 nM.

Q: What about the IC50 [48] of the same compound?
A: Its IC50 is over 2000 nM.

Q: What about the IC50 [49] of the same compound?
A: Its IC50 is over 2000 nM.

Q: What about the IC50 [50] of the same compound?
A: Its IC50 is over 2000 nM.

Q: What about the IC50 [51] of the same compound?
A: The IC50 was over 2000 nM.

Q: And the IC50 [52]?
A: The IC50 was over 2000 nM.

Q: And the IC50 [53]?
A: Its IC50 is over 2000 nM.

Q: What about the IC50 [54] of the same compound?
A: The IC50 was over 2000 nM.

Q: What about the IC50 [55] of the same compound?
A: Its IC50 is over 2000 nM.

Q: What about the IC50 [56] of the same compound?
A: The IC50 was over 2000 nM.

Q: And the IC50 [57]?
A: Its IC50 is over 2000 nM.

Q: What about the IC50 [58] of the same compound?
A: The IC50 was over 2000 nM.

Q: What about the IC50 [59] of the same compound?
A: Its IC50 is over 2000 nM.

Q: What about the IC50 [60] of the same compound?
A: Its IC50 is over 2000 nM.

Q: What about the IC50 [61] of the same compound?
A: The IC50 was over 2000 nM.

Q: And the IC50 [62]?
A: The IC50 was over 2000 nM.

Q: And the IC50 [63]?
A: The IC50 was over 2000 nM.

Q: What about the IC50 [64] of the same compound?
A: Its IC50 is over 2000 nM.

Q: What about the IC50 [65] of the same compound?
A: The IC50 was over 2000 nM.

Q: And the IC50 [66]?
A: The IC50 was over 2000 nM.

Q: What does the source list for C/C(O)=C(\C#N)C(=O)Nc1cc(Br)ccc1Br?
A: IC50 [1]: > 16000 nM; IC50 [2]: > 16000 nM; IC50 [3]: > 16000 nM; IC50 [4]: > 16000 nM; IC50 [5]: > 16000 nM; IC50 [6]: > 16000 nM; IC50 [7]: > 16000 nM; IC50 [8]: > 16000 nM; IC50 [9]: > 16000 nM; IC50 [10]: > 16000 nM; IC50 [11]: > 16000 nM; IC50 [12]: > 16000 nM; IC50 [13]: > 16000 nM; IC50 [14]: > 16000 nM; IC50 [15]: > 16000 nM; IC50 [16]: > 16000 nM; IC50 [17]: > 16000 nM; IC50 [18]: > 16000 nM; IC50 [19]: > 16000 nM; IC50 [20]: > 16000 nM; IC50 [21]: > 16000 nM; IC50 [22]: > 16000 nM; IC50 [23]: > 16000 nM; IC50 [24]: > 16000 nM; IC50 [25]: > 16000 nM; IC50 [26]: > 16000 nM; IC50 [27]: > 16000 nM; IC50 [28]: > 16000 nM; IC50 [29]: > 16000 nM; IC50 [30]: > 16000 nM; IC50 [31]: > 16000 nM; IC50 [32]: > 16000 nM; IC50 [33]: > 16000 nM; IC50 [34]: > 16000 nM; IC50 [35]: > 16000 nM; IC50 [36]: > 16000 nM; IC50 [37]: > 16000 nM; IC50 [38]: > 16000 nM; IC50 [39]: > 16000 nM; IC50 [40]: > 16000 nM; IC50 [41]: > 16000 nM; IC50 [42]: > 16000 nM; IC50 [43]: > 16000 nM; IC50 [44]: > 16000 nM; IC50 [45]: > 16000 nM; IC50 [46]: > 16000 nM; IC50 [47]: > 16000 nM; IC50 [48]: > 16000 nM; IC50 [49]: > 16000 nM; IC50 [50]: > 16000 nM; IC50 [51]: > 16000 nM; IC50 [52]: > 16000 nM; IC50 [53]: > 16000 nM; IC50 [54]: > 16000 nM; IC50 [55]: > 16000 nM; IC50 [56]: > 16000 nM; IC50 [57]: > 16000 nM; IC50 [58]: > 16000 nM; IC50 [59]: > 16000 nM; IC50 [60]: > 16000 nM; IC50 [61]: > 16000 nM; IC50 [62]: > 16000 nM; IC50 [63]: > 16000 nM; IC50 [64]: > 16000 nM; IC50 [65]: > 16000 nM; IC50 [66]: > 16000 nM

From ChEMBL document CHEMBL1201861, “Genomics of Drug Sensitity in Cancer screening data, Wellcome Trust Sanger Institute”
